pIC50: −log10 of the molar value. One block for each compound: values may come before it. Active and inactive are the calls of the source. The calls are words filed in the database; no cut-off is given here.
Assays:
[1] = test system: T47D; assay: Cytotoxicity activity against human T47D cells; format: functional, cell-based
[2] = Cytotoxicity against human HUVEC cells assessed as reduction in cell growth incubated for 48 hrs by CCK-8 method; format: toxicity, cell-based
[3] = Metabolic stability in Sprague-Dawley rat liver microsomes at 100 ug/ml measured after 120 mins in presence of NADPH generating system by HPLC analysis; format: ADME, Microsome; details: at 100 µg/mL, read-out: Stability
[4] = Tmax in Sprague-Dawley rat at 20 mg/kg, iv administered as single dose measured upto 6 hrs by HPLC analysis; format: ADME, organism-based; details: in vivo
[5] = species: Mus musculus; assay: Anti-angiogenesis activity in VEGF stimulated C57/bl6 mouse assessed as decrease in number of blood vessels at 1.25 to 20 uM measured after 10 days; format: functional, organism-based; details: dose 1.25-20 µM, time 10.0 day
[6] = AUC (0 to t) in Sprague-Dawley rat at 20 mg/kg, iv administered as single dose measured upto 6 hrs by HPLC analysis; format: ADME, organism-based; design: dose 20 mg/kg, time < 6 hrs, route iv; details: in vivo
[7] = Apparent volume of distribution in Sprague-Dawley rat at 20 mg/kg, iv administered as single dose measured upto 6 hrs by HPLC analysis; format: ADME, organism-based; details: in vivo, read-out: Vz
[8] = Subchronic toxicity in Kunming mouse assessed as drug tolerance at 50 mg/kg administered via oral gavage measured upto 10 days; format: organism-based; details: in vivo, 240 h, time < 10 day
[9] = Subchronic toxicity in Kunming mouse assessed as adverse events at 50 mg/kg administered via oral gavage measured upto 10 days; format: organism-based; details: in vivo, 240 h, time < 10 day
[10] = Subchronic toxicity in Kunming mouse assessed as side effects at 50 mg/kg administered via oral gavage measured upto 10 days; format: organism-based; details: in vivo, 240 h, time < 10 day
[11] = Subchronic toxicity in Kunming mouse assessed as effect on body weight at 50 mg/kg administered via oral gavage measured upto 10 days; format: organism-based; details: in vivo, 240 h, time < 10 day
[12] = Subchronic toxicity in Kunming mouse assessed as effect on apparent behavior problem at 50 mg/kg administered via oral gavage measured upto 10 days; format: organism-based; details: in vivo, 240 h, time < 10 day
[13] = Half life in Sprague-Dawley rat at 20 mg/kg, iv administered as single dose measured upto 6 hrs by HPLC analysis; format: ADME, organism-based; details: in vivo
[14] = Metabolic stability in Sprague-Dawley rat liver microsomes at 100 ug/ml measured after 10 mins in presence of NADPH generating system by HPLC analysis; format: ADME, Microsome; details: at 100 µg/mL, read-out: Stability
[15] = Cmax in Sprague-Dawley rat at 20 mg/kg, iv administered as single dose measured upto 6 hrs by HPLC analysis; format: ADME, organism-based; design: dose 20 mg/kg, time < 6 hrs, route iv; details: in vivo
[16] = test system: A549; assay: Cytotoxicity against human A549 cells assessed as reduction in cell growth at 4 uM incubated for 48 hrs by CCK-8 method; format: functional, cell-based
[17] = test system: A549; assay: Inhibition of cell invasion in human A549 cells at 0 to 4 uM measured after 24 hrs by calcein-AM staining transwell invasion assay; format: functional, cell-based; details: dose 0-4 µM
[18] = AUC (0 to infinity) in Sprague-Dawley rat at 20 mg/kg, iv administered as single dose measured upto 6 hrs by HPLC analysis; format: ADME, organism-based; design: time < 6 hrs, dose 20 mg/kg, route iv; details: in vivo
[19] = Clearance in Sprague-Dawley rat at 20 mg/kg, iv administered as single dose measured upto 6 hrs by HPLC analysis; format: ADME, organism-based; details: in vivo
[20] = species: Mus musculus; assay: Anti-angiogenesis activity in VEGF stimulated C57/bl6 mouse assessed as formation of new blood vessels at 20 uM measured after 10 days; format: functional, organism-based; details: time 10.0 day
[21] = test system: Mus musculus; assay: Anti-angiogenesis activity in VEGF stimulated C57/bl6 mouse implanted with matrigel assessed as appearance of hemoglobin content in matrigel plug at 1.25 to 20 uM measured after 10 days; format: functional, organism-based; details: dose 1.25-20 µM, time 10.0 day
[22] = test system: A549; assay: Inhibition of VEGF induced cell invasion in human A549 cells measured after 24 hrs by calcein-AM staining transwell invasion assay; format: functional, cell-based; details: dose 0-4 µM
[23] = Metabolic stability in Sprague-Dawley rat liver microsomes at 100 ug/ml measured after 30 mins in presence of NADPH generating system by HPLC analysis; format: ADME, Microsome; details: at 100 µg/mL, read-out: Stability
[24] = Metabolic stability in Sprague-Dawley rat liver microsomes assessed as half life at 100 ug/ml measured upto 120 mins in presence of NADPH generating system by HPLC analysis; format: ADME, Microsome; details: dose 100 µg/ml
[25] = Metabolic stability in Sprague-Dawley rat liver microsomes at 100 ug/ml measured after 60 mins in presence of NADPH generating system by HPLC analysis; format: ADME, Microsome; details: at 100 µg/mL, read-out: Stability
[26] = test system: A549; assay: Antimigratory activity in human A549 cells assessed as decrease in cell migration at 4 uM incubated for 24 hrs by wound healing assay; format: functional, cell-based
[27] = test system: A549; assay: Cytotoxicity against human A549 cells assessed as reduction in cell growth incubated for 48 hrs by CCK-8 method; format: functional, cell-based
[28] = Plasma protein binding in Sprague-Dawley rat assessed as free fraction by equilibrium dialysis analysis; format: ADME, cell-free
[29] = test system: HUVEC; assay: Cytotoxicity against human HUVEC cells assessed as reduction in cell growth at 10 uM incubated for 48 hrs by CCK-8 method; format: toxicity, cell-based
[30] = test system: HUVEC; assay: Antiangiogenic activity in HUVEC assessed as inhibition of VEGF-induced tube formation measured after 12 hrs by matrigel based analysis; format: functional, cell-based; details: Homo sapiens, dose 0-8 µM

SMILES: COc1ccc([C@@H](O)[C@@H](C)Oc2ccc([C@H]3O[C@H](c4ccc(O[C@H](C)[C@H](O)c5ccc(OC)c(OC)c5)c(OC)c4)[C@H](C)[C@H]3C)cc2OC)cc1OC
- pIC50 [1]: 8.52

- remaining at 2 h, 100 ug/ml [3]: 51%
- Tmax [4]: 1.98 min
- AUC(0-t) at 6 h [6]: 5.27 µM·h
- Vd [7]: 5.59 L
- half-life [13]: 98.4 min
- remaining at 10 min, 100 ug/ml [14]: 90%
- Cmax [15]: 7.06 µM
- AUC(0-inf) [18]: 8.88 µM·h
- clearance [19]: 39.5 mL/min
- remaining at 0.5 h, 100 ug/ml [23]: 77%
- half-life at 100 ug/ml [24]: 138 min
- remaining at 1 h, 100 ug/ml [25]: 60%
- fraction unbound [28]: 0.88
SMILES: COc1ccc(/C=C/C(=O)c2ccc3c(c2O)C=CC(C)(C)O3)cc1OCCCN1CCCC1
- IC50 at 48 h [2]: 19.6 µM
- IC20 at 48 h ([2]; time 48 hrs): 10.6 µM
- Activity [5]: Active
- Activity [8]: Non-Toxic
- Activity [9]: Non-Toxic
- Activity [10]: Non-Toxic
- Activity [11]: Non-Toxic
- Activity [12]: Non-Toxic
- Activity [16]: inactive
- inhibition [17]: Active
- Activity [20]: inactive
- Activity [21]: Active
- inhibition [22]: Dose-Dependent Effect
- Activity [26]: Active
- pIC50 ([27]; A549, 48 h): 5.05
- IC20 ([27]; A549, time 48 hrs): 4.19 µM
- Activity [29]: Non-Toxic
- Activity [30]: Dose-Dependent Effect
